Laboratory results: PMC11091220, “Metabolism-driven in vitro/in vivo disconnect of an oral ERɑ VHL-PROTAC” (Communications Biology, 2024)
Values joined by “and” are separate entries in the source; they are usually repeats but may differ in a detail not shown here. Identical values can stand only once.

Key:
[1] = tested on: PGR mRNA; test: PD study in CTC174 PDX model, tumour PGR mRNA by qPCR; type: in vivo, mouse; conditions: 100 mg/kg BID, 4 days, individual animals; listed as AZ'6421
[2] = Solution NMR hydrogen-bond donor shielding (A-NMR, temperature-dependent shift); type: physicochemical; conditions: N-terminal amide HBD of (S,R,S)-AHPC
Text: 1. Supplementary Note 1: 3D Conformer of AZ’6421 (5) free in solution
PROTACs are prone to intramolecular interactions that can substantially modify their drug-like properties.1 Here we used solution NMR spectroscopy to determine the 3D conformer of 5 free in solution. Initially, water/DMSO mixtures were utilised to enhance solubility of these highly lipophilic compounds in a relevant protic solvent. However, The 1D 1H-NMR signals of 5 in a mixture of DMSO […]
pure DMSO was used for simplicity. By two 1D 1H-NMR based methods A-NMR2 and temperature- […]
values are both indicative of HBD shielding, whereas the benzyl-amide NH donor of the VHL binding motif and the indole NH in the ERα binding substructure show values characteristic of solvent exposure. By 2D rotating-frame nuclear Overhauser effect (NOE) and 1H-13C long-range correlation (13C-HSQMBC) NMR spectroscopy we determined distance and tortional angle restraints for 3D structure calculation showing an intra-molecular H-bond to the ether oxygen proximal to the N-terminus of (S,R,S)-AHPC. Deletion of this ether oxygen from the N-terminus of (S,R,S)-AHPC produces a large chemical change of 0.6 ppm for the NH donor, whereas most other 1H signals remain unchanged (Figure S3). […]

[3] = tested on: uterus; test: Immature female rat model, uterine weight and histology; type: in vivo; conditions: for Uterine weight normalised to body weight (% vehicle): individual animals, listed as AZ'6421
Text: Some endocrine therapies, such as tamoxifen, have been reported to display weak agonistic activity in the endometrium due to altered cofactor recruitment and subsequent activation of gene transcription. We therefore sought to test whether AZ’6421 was a complete antagonist or could act as a partial agonist, in both in vitro and in vivo models. […] Plasma samples were taken 4 hr after the 4th dose, at the same time as the uterus was weighed and sectioned for H&E staining. To further explore whether AZ’6421 may be acting as an agonist in vivo, morphological changes of the uterine were examined: uterine horns were formalin-fixed paraffin-embedded, stained with haematoxylin and eosin and then transverse sections of uterus examined.

[4] = Mouse microsome intrinsic clearance; type: in vitro ADME
Procedure: Mouse liver microsomes (Male CD-1) are obtained from Corning at a concentration of 20 mg/mL protein. The test compound was prepared to 10 mM in 100% DMSO and further diluted to 100 μM in 100% acetonitrile. The microsomal incubations were prepared in phosphate buffered solution pH 7.4 containing 1 mg/mL microsomal protein, 1 mM NADPH and a final compound concentration of 1 μM. Following a pre-incubation with NADPH for 8 min, reactions were initiated through the addition of the test compound (final volume 250 µL) and incubated at 37 °C in a water bath for 30 min. At each time point (0.5, 5, 10, 15, 20, 30 min) 20 μL of incubation mixture was quenched with 100 μL of 100% ice cold acetonitrile. Samples were shaken at 800 rpm for 2 min and centrifuged at 4000 rpm for 20 min at 4 °C to pellet precipitated protein. The supernatant fraction was diluted 1:5 with deionised water, shaken at 1000 rpm for 2 min, and further diluted 1:1 with deionised water. Samples were analysed by LC-MS/MS[17].

For `Cc1ncsc1-c1ccc(CNC(=O)[C@@H]2C[C@@H](O)CN2C(=O)[C@@H](NC(=O)COCCCOCCCOc2cc(F)c([C@@H]3c4[nH]c5ccccc5c4C[C@@H](C)N3CC(C)(C)F)c(F)c2)C(C)(C)C)cc1` [Compound 5], the “PGR mRNA expression in tumour (% of vehicle)” value [1] was 12.5811% and 15.4178% and 10.0087% and 25.9295% and 45.882%, the A-NMR value [2] was 0.03 and the temperature-dependent perturbation ([2]; DMSO) was -2.6 ppb/K. The “Uterine weight normalised to body weight (% vehicle)” value ([3]; 30 mg/kg BID) was 100.01% and 167.09% and 162.21% and 134.02% and 93.04%, the “Uterine weight normalised to body weight (% vehicle)” value ([3]; 100 mg/kg BID) was 147.05% and 110.41% and 107.36% and 113.51% and 133.84% and the uterine weight ([3]; 30 and 100 mg/kg, immature female rat, 4 days) was “trend of increased uterine weight”. For the same compound, the “uterine epithelium morphology (H&E)” value ([3]; immature female rat, 4 days dosing) was “tall columnar uterine epithelium” and the “mouse liver microsomes stability” value [4] was 22 µL/min/mg protein.
